From the supplement of paper PMC13380429

Assays:
U2OS [1] = test: drug sensitivity score (DSS) for viability; higher = more toxic; extreme values may be limits of the assay; settings: 72 h
Caco-2 [2] = test: as above; settings: 72 h
Calu-3 [3] = test: as above; settings: 72 h
HepG2 [4] = test: as above; settings: 72 h
Vero E6 [5] = test: as above; settings: 72 h
U2OS [6] = test: cell viability relative to DMSO; higher = less toxic; settings: 72 h
Caco-2 [7] = test: as above; settings: 72 h
Calu-3 [8] = test: as above; settings: 72 h
HepG2 [9] = test: as above; settings: 72 h
Vero E6 [10] = test: as above; settings: 72 h
U2OS [11] = test: relative viability EC50 (midpoint between 100% and the lowest measured viability); higher = less toxic; settings: 72 h
Caco-2 [12] = test: as above; settings: 72 h
Calu-3 [13] = test: as above; settings: 72 h
HepG2 [14] = test: as above; settings: 72 h
Vero E6 [15] = test: as above; settings: 72 h
[16] = tested on: A549-ACE2 infected with SARS-CoV-2; test: cell count relative to DMSO; higher = less toxic; settings: 24 h
[17] = tested on: A549-ACE2 infected with SARS-CoV-2; test: SARS-CoV-2 infection rate relative to DMSO; higher = more infection; settings: 24 h
[18] = tested on: A549-ACE2 infected with SARS-CoV-2; test: morphology score (similarity to uninfected cells); higher = more like uninfected cells; settings: 24 h
A549-ACE2 [19] = test: phospholipidosis EC50; higher = less potent phospholipidosis inducer
A549-ACE2 [20] = test: drug-induced phospholipidosis relative to tamoxifen; higher = more phospholipidosis

COCC(=O)Nc1c(I)c(C(=O)NCC(O)CO)c(I)c(C(=O)N(C)CC(O)CO)c1I (stereo not drawn) [iopromide]
Settings | drug sensitivity score | relative viability EC50 [µM]
Caco-2 [2] | 0 | –
Caco-2 [12] | – | > 10
Calu-3 [3] | 0 | –
Calu-3 [13] | – | > 10
HepG2 [4] | 0 | –
HepG2 [14] | – | > 10
U2OS [1] | 0 | –
U2OS [11] | – | > 10
Vero E6 [5] | 0 | –
Vero E6 [15] | – | > 10

cell viability [%]
Settings | Caco-2 [7] | Calu-3 [8] | HepG2 [9] | U2OS [6] | Vero E6 [10]
1 nM | 93.6 | 110 | 98 | 99 | 100
10 nM | 101 | 104 | 89.1 | 101 | 104
100 nM | 93.7 | 93.1 | 89.1 | 99.1 | 93.9
1000 nM | 98.4 | 94.9 | 85.2 | 100 | 94.9
10000 nM | 102 | 96.1 | 95.6 | 95.1 | 104

O=C(N[C@H]1CN2CCC1CC2)c1ccc2c(c1)OCCO2
Settings | drug sensitivity score | relative viability EC50 [µM]
Caco-2 [2] | 0 | –
Caco-2 [12] | – | > 10
Calu-3 [3] | 0 | –
Calu-3 [13] | – | > 10
HepG2 [4] | 0 | –
HepG2 [14] | – | > 10
U2OS [1] | 0 | –
U2OS [11] | – | > 10
Vero E6 [5] | 0 | –
Vero E6 [15] | – | > 10

cell viability [%]
Settings | Caco-2 [7] | Calu-3 [8] | HepG2 [9] | U2OS [6] | Vero E6 [10]
1 nM | 93.6 | 93.6 | 101 | 98.8 | 100
10 nM | 95.2 | 98.3 | 93 | 94.8 | 89.3
100 nM | 87.5 | 102 | 108 | 97.8 | 97.2
1000 nM | 101 | 102 | 97.7 | 95.3 | 91.3
10000 nM | 99.1 | 99.3 | 94.6 | 97.2 | 107

CC(=O)N[C@H](Cc1ccc2ccccc2c1)C(=O)N[C@H](Cc1ccc(Cl)cc1)C(=O)N[C@H](Cc1cccnc1)C(=O)N[C@@H](CO)C(=O)N[C@@H](Cc1ccc(NC(=O)[C@@H]2CC(=O)NC(=O)N2)cc1)C(=O)N[C@H](Cc1ccc(NC(N)=O)cc1)C(=O)N[C@@H](CC(C)C)C(=O)N[C@@H](CCCCNC(C)C)C(=O)N1CCC[C@H]1C(=O)N[C@H](C)C(N)=O [degarelix]
Settings | drug sensitivity score | relative viability EC50 [µM]
Caco-2 [2] | 0 | –
Caco-2 [12] | – | > 10
Calu-3 [3] | 0 | –
Calu-3 [13] | – | > 10
HepG2 [4] | 0 | –
HepG2 [14] | – | > 10
U2OS [1] | 0 | –
U2OS [11] | – | > 10
Vero E6 [5] | 0 | –
Vero E6 [15] | – | > 10

cell viability [%]
Settings | Caco-2 [7] | Calu-3 [8] | HepG2 [9] | U2OS [6] | Vero E6 [10]
1 nM | 90.3 | 103 | 103 | 97.1 | 95.6
10 nM | 92.8 | 104 | 80.7 | 97 | 93.8
100 nM | 99.9 | 91.7 | 112 | 98.7 | 92
1000 nM | 90.4 | 91.9 | 91 | 99.9 | 89.8
10000 nM | 99.6 | 96.6 | 110 | 101 | 101

CC(CN1c2ccccc2Sc2ccccc21)N(C)C (stereo not drawn) [promethazine]
Settings | drug sensitivity score | relative viability EC50 [µM]
Caco-2 [2] | 0 | –
Caco-2 [12] | – | > 10
Calu-3 [3] | 0 | –
Calu-3 [13] | – | > 10
HepG2 [4] | 0.3 | –
HepG2 [14] | – | > 10
U2OS [1] | 0 | –
U2OS [11] | – | > 10
Vero E6 [5] | 0.4 | –
Vero E6 [15] | – | > 10

Settings | SARS-CoV-2 infection rate [%] | cell count [%] | cell viability [%] | morphology score | phospholipidosis EC50 [µM]
A549-ACE2 [19], 24 h | – | – | – | – | 7.49
A549-ACE2 [19], 48 h | – | – | – | – | 9.37
A549-ACE2 [19], 72 h | – | – | – | – | 11.1
Caco-2 [7], 1 nM | – | – | 99.8 | – | –
Caco-2 [7], 10 nM | – | – | 99 | – | –
Caco-2 [7], 100 nM | – | – | 106 | – | –
Caco-2 [7], 1000 nM | – | – | 107 | – | –
Caco-2 [7], 10000 nM | – | – | 92.7 | – | –
Calu-3 [8], 1 nM | – | – | 112 | – | –
Calu-3 [8], 10 nM | – | – | 103 | – | –
Calu-3 [8], 100 nM | – | – | 98.6 | – | –
Calu-3 [8], 1000 nM | – | – | 103 | – | –
Calu-3 [8], 10000 nM | – | – | 96.1 | – | –
HepG2 [9], 1 nM | – | – | 119 | – | –
HepG2 [9], 10 nM | – | – | 96.4 | – | –
HepG2 [9], 100 nM | – | – | 78.1 | – | –
HepG2 [9], 1000 nM | – | – | 103 | – | –
HepG2 [9], 10000 nM | – | – | 83.3 | – | –
U2OS [6], 1 nM | – | – | 103 | – | –
U2OS [6], 10 nM | – | – | 108 | – | –
U2OS [6], 100 nM | – | – | 97.8 | – | –
U2OS [6], 1000 nM | – | – | 100 | – | –
U2OS [6], 10000 nM | – | – | 94.9 | – | –
Vero E6 [10], 1 nM | – | – | 101 | – | –
Vero E6 [10], 10 nM | – | – | 95.5 | – | –
Vero E6 [10], 100 nM | – | – | 99.4 | – | –
Vero E6 [10], 1000 nM | – | – | 102 | – | –
Vero E6 [10], 10000 nM | – | – | 80.5 | – | –
[16], 0.3 µM | – | 103 | – | – | –
[16], 3 µM | – | 112 | – | – | –
[16], 10 µM | – | 118 | – | – | –
[16], 30 µM | – | 115 | – | – | –
[17], 0.3 µM | 93 | – | – | – | –
[17], 3 µM | 51 | – | – | – | –
[17], 10 µM | 63 | – | – | – | –
[17], 30 µM | 11 | – | – | – | –
[18], 0.3 µM | – | – | – | 0.09 | –
[18], 3 µM | – | – | – | 0.72 | –
[18], 10 µM | – | – | – | 0.76 | –
[18], 30 µM | – | – | – | 0.72 | –

drug-induced phospholipidosis [%], A549-ACE2 [20]
Settings | 0.3 µM | 0.833333 µM | 3.33333 µM | 6.66667 µM | 10 µM | 30 µM
24 h | 1.08 | 0.17 | 9.69 | 43.2 | 62.1 | 92
48 h | -0.1 | 0.2 | 6.54 | 31.9 | 55.6 | 96.7
72 h | 1.14 | 0.443 | 8.72 | 23.6 | 50.4 | 102

Cc1cnc(C(=O)O)c[n+]1[O-] [acipimox]
Settings | drug sensitivity score | relative viability EC50 [µM]
Caco-2 [2] | 0 | –
Caco-2 [12] | – | > 10
Calu-3 [3] | 0 | –
Calu-3 [13] | – | > 10
HepG2 [4] | 0 | –
HepG2 [14] | – | > 10
U2OS [1] | 0 | –
U2OS [11] | – | > 10
Vero E6 [5] | 0 | –
Vero E6 [15] | – | > 10

cell viability [%]
Settings | Caco-2 [7] | Calu-3 [8] | HepG2 [9] | U2OS [6] | Vero E6 [10]
1 nM | 94.3 | 107 | 87.2 | 98.6 | 98.6
10 nM | 100 | 102 | 101 | 101 | 103
100 nM | 95.4 | 108 | 96.6 | 101 | 102
1000 nM | 93.4 | 94.7 | 89.5 | 98.5 | 95.7
10000 nM | 87.2 | 97.1 | 92.3 | 97 | 101
